For 14 compounds, GI50 and TGI results are on record in PubChem BioAssay (NCI).

Some test systems named below: RXF 393 renal; OVCAR-5 ovarian; KM12 colon; NCI-H226 lung; NCI/ADR-RES ovarian; SF-268 CNS; MALME-3M melanoma; HOP-92 NSCLC; LOX IMVI melanoma; ACHN renal.
Holding throughout (test): DTP human tumour cell line panel, 48 h

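Assay format: 96-well plates, 48-hour exposure. GI50: concentration for 50% inhibition of growth. TGI marks complete inhibition of growth.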 *1 amine or outer side, *2 acyl side, *3 side chain or, on linkers, in order; H or OH if unused. Where a SMILES comes first, the peptide text is derived from it. [ ]: non-standard residue; d: D form. The star is where a group is joined. X12 = NCCCCC(N[*:1])C(=O)CN1CCCC1C(=O)[*:2]; Pentadecanoyl = CCCCCCCCCCCCCCC(=O)* A value given as a limit tells only on which side of the number the result lay.

By GI50 is commonly meant the concentration at which growth is held to half of that of the control. Usually TGI stands for the concentration at which net growth stops. Lower therefore signals greater sensitivity of the cells.

For `CCCCCCCCCCCCCCC(=O)NC(CCCCN)C(=O)CN1CCCC1C(=O)NCC(=O)NC(Cc1ccccc1)C(=O)N1CCCC1C(=O)NC(CO)C(=O)NC(Cc1ccc(O)cc1)C(=O)NC(CCCCN)C(=O)NC(CC(C)C)C(=O)NC(CCCN=C(N)N)C(=O)N1CCCC1C(=O)NCC(N)=O` (stereo not given) (Pentadecanoyl-[X12]GFPSYKLRPG-NH2; configuration not given here), the GI50 in the test with RXF 393 renal is 26.1 µM; in the test with OVCAR-5 ovarian it was 18.7 µM; in the test with KM12 colon, 7.61 µM; in the test on NCI-H226 lung, 17.8 µM; in the test on NCI/ADR-RES ovarian it was 20.6 µM; with SF-268 CNS it was 22.4 µM. Moreover, the values for the GI50 with MALME-3M melanoma and in the test with HOP-92 NSCLC were 8.11 µM and 15.9 µM, respectively. Moreover, the TGI with RXF 393 renal came to 60.4 µM; in the test on OVCAR-5 ovarian, 44.4 µM; in the test with KM12 colon, 38.7 µM; in the test on NCI-H226 lung, 38.6 µM; in the test with NCI/ADR-RES ovarian it was 43.7 µM; with SF-268 CNS it was 52.9 µM. Also, the TGI came out at 32.2 µM with MALME-3M melanoma and 37.4 µM in the test on HOP-92 NSCLC.
`NC(=O)c1ccc(S(=O)(=NS(=O)(=O)c2ccccc2)c2ccc(C(N)=O)cc2)cc1`: the TGI with RXF 393 renal, in the test with OVCAR-5 ovarian, with KM12 colon, in the test on NCI-H226 lung, with LOX IMVI melanoma and in the test with NCI/ADR-RES ovarian was over 100 µM in each case. Besides, the TGI in the test with SF-268 CNS, with MALME-3M melanoma, in the test with HOP-92 NSCLC and in the test with ACHN renal was over 100 µM in each case.
Take `CN(C)CCSc1nccc(-c2ccc(-c3ccnc(SCCN(C)C)n3)s2)n1`: the TGI with RXF 393 renal was determined as 9.99 µM; in the test with OVCAR-5 ovarian, 29.4 µM; in the test with KM12 colon it was 16 µM; with NCI-H226 lung, 27.7 µM; in the test with LOX IMVI melanoma, 11.9 µM; in the test with NCI/ADR-RES ovarian it was 19.9 µM. The total growth inhibition concentration (TGI) in the test on SF-268 CNS turned out to be 22 µM; in the test with MALME-3M melanoma, 24.2 µM; in the test with HOP-92 NSCLC it was 28.1 µM.
`Cn1c(-c2cccs2)cc(-c2ccsc2)c1-c1ccsc1`: the TGI with RXF 393 renal, with OVCAR-5 ovarian, with KM12 colon, with NCI-H226 lung, in the test with NCI/ADR-RES ovarian and with SF-268 CNS was over 100 µM throughout. Further, the TGI in the test on MALME-3M melanoma, in the test with HOP-92 NSCLC and in the test on ACHN renal was over 100 µM each time.
On to `C(=N\Nc1nnc(-c2nnc(N/N=C/c3ccccc3)o2)o1)/c1ccccc1`, for which the TGI with RXF 393 renal, in the test with OVCAR-5 ovarian, in the test with KM12 colon, in the test with NCI-H226 lung, in the test on NCI/ADR-RES ovarian and in the test with SF-268 CNS was over 10 µM each time. Moreover, the TGI with MALME-3M melanoma, in the test with HOP-92 NSCLC and in the test on ACHN renal was over 10 µM each time.
For the compound `COc1ccc(OC)c([N+](=O)[O-])c1-c1nc2sc(C)cn2c1/C=N/N=C(N)N`, the TGI in the test with RXF 393 renal was 76.1 µM; in the test with OVCAR-5 ovarian it was over 100 µM; in the test on KM12 colon, 72.9 µM; in the test on NCI-H226 lung, 92.7 µM; with LOX IMVI melanoma, over 100 µM; in the test on NCI/ADR-RES ovarian it was over 100 µM. Further, the TGI is over 100 µM in the test on SF-268 CNS, 44.3 µM in the test with MALME-3M melanoma, 47.8 µM with HOP-92 NSCLC and over 100 µM in the test on ACHN renal.
For the compound `Oc1cccc(-c2cn3cc(Cl)ccc3n2)c1`, the TGI in the test with RXF 393 renal was 86 µM; in the test on OVCAR-5 ovarian, over 100 µM; in the test on KM12 colon, over 100 µM; in the test on NCI-H226 lung it was over 100 µM; with LOX IMVI melanoma, over 100 µM; in the test on NCI/ADR-RES ovarian, over 100 µM. The TGI in the test with SF-268 CNS, in the test with MALME-3M melanoma, in the test with HOP-92 NSCLC and in the test on ACHN renal was over 100 µM throughout.
For the compound `COc1cc(C)c(S(=O)(=O)N(CCCN)OCCCN)c(C)c1C`, the TGI with RXF 393 renal was 90 µM; in the test on OVCAR-5 ovarian, over 100 µM; in the test with KM12 colon, over 100 µM; in the test with NCI-H226 lung, over 100 µM; in the test on LOX IMVI melanoma, 84.6 µM; in the test on NCI/ADR-RES ovarian it was over 100 µM. The TGI was over 100 µM in the test with SF-268 CNS, 42.8 µM with MALME-3M melanoma and over 100 µM in the test with ACHN renal.
As for `Cc1cc(S(=O)(=O)Nc2n[nH]c(N)n2)c(S)cc1Cl`, the TGI in the test with RXF 393 renal, with OVCAR-5 ovarian, in the test with KM12 colon, in the test on NCI-H226 lung, in the test with LOX IMVI melanoma and in the test with NCI/ADR-RES ovarian was over 10 µM each time. In addition, the TGI in the test with SF-268 CNS, in the test with MALME-3M melanoma and in the test on ACHN renal was over 10 µM in each case.
Turning to `C/C(=N/NC(=O)c1ccccc1Nc1ccccc1C(=O)N/N=C(\C)c1ccc(C)cc1)c1ccc(C)cc1`, the TGI in the test on RXF 393 renal, in the test on OVCAR-5 ovarian, in the test with KM12 colon, in the test with NCI-H226 lung, with NCI/ADR-RES ovarian and in the test with SF-268 CNS was over 100 µM each time. In addition, the TGI in the test on MALME-3M melanoma, in the test on HOP-92 NSCLC and in the test with ACHN renal was over 100 µM each time.
For `C[C@@H]1CC(=O)[C@@]2(C)[C@](O)(CCC3O[C@]32C)[C@@]12CC(c1ccoc1)OC2=O` (stereo not given in full), the TGI with RXF 393 renal is 88.6 µM; with OVCAR-5 ovarian, over 100 µM; with KM12 colon, over 100 µM; in the test with NCI-H226 lung it was over 100 µM; in the test on LOX IMVI melanoma, over 100 µM; in the test with NCI/ADR-RES ovarian it was over 100 µM. Further, the total growth inhibition concentration (TGI) in the test on MALME-3M melanoma and in the test on ACHN renal was over 100 µM in each case.
As to `COc1ccc(Cn2nc(OCc3ccccc3)c3cc([N+](=O)[O-])ccc32)cc1`, the total growth inhibition concentration (TGI) in the test on RXF 393 renal, with OVCAR-5 ovarian, in the test with KM12 colon, with NCI-H226 lung, with LOX IMVI melanoma and with NCI/ADR-RES ovarian was over 100 µM throughout. Further, the TGI with SF-268 CNS, in the test with MALME-3M melanoma and in the test on ACHN renal was over 100 µM throughout.
Turning to `CCOC(=O)C1=C(C)N(c2ccc(Cl)cc2)C2(O)C=CC(=O)C3C(=O)N(c4ccccc4)C(=O)C132` (stereo not given), the TGI in the test on RXF 393 renal is 3.31 µM; in the test with OVCAR-5 ovarian, 4.15 µM; in the test on KM12 colon it was 3.52 µM; in the test with LOX IMVI melanoma it was 3.69 µM; in the test with NCI/ADR-RES ovarian, 6.72 µM; with SF-268 CNS it was 4.54 µM. Further, the concentration for total growth inhibition (TGI) turned out to be 3.57 µM in the test with MALME-3M melanoma, 1.96 µM with HOP-92 NSCLC and 3.07 µM in the test with ACHN renal.
As for `N#Cc1c(NC(=S)Nc2ccccc2)sc2c1CCCC2`, the total growth inhibition concentration (TGI) in the test on RXF 393 renal, in the test on OVCAR-5 ovarian, with KM12 colon, in the test with NCI-H226 lung, with LOX IMVI melanoma and with NCI/ADR-RES ovarian was over 100 µM each time. Moreover, the TGI with SF-268 CNS, in the test on MALME-3M melanoma and with ACHN renal was over 100 µM throughout.
